According to patent US9765075B2, “Substituted bridged urea analogs as sirtuin modulators” (GLAXOSMITHKLINE LLC, priority 2013, dated 2017):
Read-outs that look alike come from different tables or passages of the source.

Molecular target: T1, SIRT1 (Homo sapiens, UniProt Q96EB6)
T1 sequence (Q96EB6 1-747): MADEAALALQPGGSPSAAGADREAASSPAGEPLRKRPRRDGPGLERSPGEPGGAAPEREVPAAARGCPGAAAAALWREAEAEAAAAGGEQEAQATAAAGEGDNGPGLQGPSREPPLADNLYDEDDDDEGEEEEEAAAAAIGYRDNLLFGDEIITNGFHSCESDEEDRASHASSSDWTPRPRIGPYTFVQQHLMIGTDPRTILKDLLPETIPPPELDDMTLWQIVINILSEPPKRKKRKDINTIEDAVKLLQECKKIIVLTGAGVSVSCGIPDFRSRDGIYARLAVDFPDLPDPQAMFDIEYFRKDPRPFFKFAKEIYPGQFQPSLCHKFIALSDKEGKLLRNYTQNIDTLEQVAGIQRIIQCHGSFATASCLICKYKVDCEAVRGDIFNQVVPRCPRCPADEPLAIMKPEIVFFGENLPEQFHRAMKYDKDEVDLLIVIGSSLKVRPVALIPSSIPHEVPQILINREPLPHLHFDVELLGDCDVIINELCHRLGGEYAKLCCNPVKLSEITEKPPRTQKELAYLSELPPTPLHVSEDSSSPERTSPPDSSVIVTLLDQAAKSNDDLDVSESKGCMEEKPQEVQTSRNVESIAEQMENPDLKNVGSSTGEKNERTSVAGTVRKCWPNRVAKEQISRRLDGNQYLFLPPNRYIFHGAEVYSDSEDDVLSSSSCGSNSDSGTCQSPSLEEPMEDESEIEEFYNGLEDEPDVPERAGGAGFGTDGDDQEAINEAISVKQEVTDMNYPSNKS
Assay: Trp mass spectrometry assay (SIRT1 activation)
Type: biochemical
Conditions: for Emax: percent maximum fold activation of SIRT1, read-out: Tryp % Fold Act
Outline: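 Activation is expressed as EC1.5, the concentration raising activity 50% above DMSO control, and as maximum percent of control. Mass-spec readout was OAADPR or deacetylated Trp peptide after a formic-acid-quenched 25-min, 25 °C reaction: 10 nM bacterially expressed His-SIRT1, 0.5 μM acetyl-p53-derived peptide, 120 μM NAD+, pH 7.5 HEPES with […].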

[1] = concentration of test compound that results in 150% activation of SIRT1, Trp peptide substrate
[2] = Trp mass spectrometry assay, EC1.5 = concentration of test compound that results in 150% activation of SIRT1
[3] = Trp mass spectrometry assay, EC1.5 = concentration giving 150% activation of SIRT1

Tryp AVG EC1.5 (μM) [1] | Emax (Trp peptide substrate) | Tryp AVG EC1.5 (μM) [2] | Emax (Trp mass spectrometry assay) | Tryp AVG EC1.5 (μM) [3] | SMILES
B (EC1.5 1-25 μM) | ≥ 150% |  |  |  | Cc1nn(C)cc1-c1ccc2c(n1)N(C(=O)Nc1cccnc1)[C@H]1CCN2C1 [Example 488]
B (EC1.5 1-25 μM) | ≥ 150% |  |  |  | COc1cc(NC(=O)N2c3nc(-c4ccc(C)nc4)ccc3N3CCC[C@H]2C3)ncn1 [Example 478]
A (EC1.5<1 μM) | ≥ 150% |  |  |  | CC(C)(C)OC(=O)NCc1ccc(NC(=O)N2c3nc(-c4cccc(C(F)(F)F)c4)ccc3N3CCC[C@H]2C3)cc1 [Example 445]
 |  | A (EC1.5<1 μM) | ≥ 150% |  | COc1cc(NC(=O)N2c3nc(-c4cccc(C(F)(F)F)c4)ccc3N3CCC2CC3)ncn1 [Example 168]
B (EC1.5 1-25 μM) | ≥ 150% |  |  |  | COc1ncc(-c2ccc3c(n2)N(C(=O)Nc2cnccn2)[C@H]2CCN3C2)c(OC)n1 [Example 398]
 |  |  | ≥ 150% |  | Cn1cc(NC(=O)N2c3nc(-c4cccc(C(F)(F)F)c4)ccc3N3CC[C@H]2C3)cn1 [Example 49]
A (EC1.5<1 μM) | ≥ 150% |  |  |  | COc1cc(NC(=O)N2c3nc(-c4cccc(Cl)c4)ccc3N3CCC2CC3)nc(OC)n1 [Example 523]
 |  | A (EC1.5<1 μM) | ≥ 150% |  | N#Cc1cccc(-c2ccc3c(n2)N(C(=O)Nc2cccnc2)[C@H]2CCN3C2)c1 [Example 180]
 |  |  | ≥ 150% | A (EC1.5<1 μM) | O=C(Nc1cncc(F)c1)N1c2nc(-c3cccc(C(F)(F)F)c3)ccc2N2C[C@@H](O)[C@H]1C2 [Example 630]
B (EC1.5 1-25 μM) | ≥ 150% |  |  |  | CS(=O)(=O)N1CCCN(c2ccc3c(n2)N(C(=O)Nc2ccncn2)[C@H]2CCCN3C2)CC1 [Example 433]
A (EC1.5<1 μM) | ≥ 150% |  |  |  | O=C(Nc1ccccn1)N1c2nc(-c3ccnc(N4CCC(C(F)(F)F)C4)c3)ccc2N2CC[C@H]1C2 (stereo partly drawn) [Example 367]
B (EC1.5 1-25 μM) | ≥ 150% |  |  |  | O=C(Nc1cnccn1)N1c2nc(-c3cccnc3)ccc2N2CCC[C@H]1C2 [Example 454]
 |  | B (EC1.5 1-25 μM) | ≥ 150% |  | O=C(Nc1ccncn1)N1c2nc(N3CCCC(C(F)(F)F)C3)ccc2N2CC[C@H]1C2 (stereo partly drawn) [Example 211]
B (EC1.5 1-25 μM) | ≥ 150% |  |  |  | CC(=O)O[C@@H]1CN2C[C@H]1N(C(=O)Nc1ccccn1)c1nc(-c3cccc(C(F)(F)F)c3)ccc12 [Example 602]
 |  | A (EC1.5<1 μM) | ≥ 150% |  | O=C(Nc1ccc(F)cn1)N1c2nc(-c3cccc(Cl)c3)ccc2N2CCC[C@H]1C2 [Example 141]
A (EC1.5<1 μM) | ≥ 150% |  |  |  | COc1cc(NC(=O)N2c3nc(-c4cncc(Cl)c4)ccc3N3CCC[C@H]2C3)ncn1 [Example 405]
 |  |  | ≥ 150% |  | Cc1cc(NC(=O)N2c3nc(-c4cccc(C(F)(F)F)c4)ccc3N3CC[C@H]2C3)ccn1 [Example 61]
C (EC1.5>25 μM) | ≥ 150% |  |  |  | Cc1noc(C)c1-c1ccc2c(n1)N(C(=O)Nc1ccccn1)[C@H]1CCN2C1 [Example 327]
 |  |  | ≥ 150% | B (EC1.5 1-25 μM) | COc1cc(NC(=O)N2c3nc(-c4cncc(C(F)(F)F)c4)ccc3N3C[C@@H](O)[C@H]2C3)ncn1 [Example 696]
 |  | A (EC1.5<1 μM) | ≥ 150% |  | O=C(Nc1cccnc1)N1c2nc(C3CCCC(C(F)(F)F)C3)ccc2N2CC[C@H]1C2 (stereo partly drawn) [Example 99]
A (EC1.5<1 μM) | ≥ 150% |  |  |  | O=C(Nc1cccc(-c2cnco2)c1)N1c2nc(-c3cccc(C(F)(F)F)c3)ccc2N2CC[C@@H]1C2 [Example 233]
A (EC1.5<1 μM) | ≥ 150% |  |  |  | CN(C)c1cccc(-c2ccc3c(n2)N(C(=O)Nc2cccc(-c4cnco4)c2)[C@@H]2CCCN3C2)c1 [Example 264]
B (EC1.5 1-25 μM) | ≥ 150% |  |  |  | CN(C)c1ccc(-c2ccc3c(n2)N(C(=O)Nc2cnccn2)[C@H]2CCN3C2)cn1 [Example 458]
 |  |  | ≥ 150% | B (EC1.5 1-25 μM) | O=C(Nc1cccnn1)N1c2nc(-c3cncc(C(F)(F)F)c3)ccc2N2C[C@@H](O)[C@H]1C2 [Example 701]

Tryp AVG EC1.5 (μM) [1] | Emax (Trp peptide substrate) | Tryp AVG EC1.5 (μM) [2] | Emax (Trp mass spectrometry assay) | Tryp AVG EC1.5 (μM) [3] | SMILES
B (EC1.5 1-25 μM) | ≥ 150% |  |  |  | Cn1ccc(-c2ccc3c(n2)N(C(=O)Nc2ccccn2)[C@H]2CCN3C2)n1 [Example 331]
A (EC1.5<1 μM) | ≥ 150% |  |  |  | Cc1cc(-c2ccc3c(n2)N(C(=O)Nc2nc(C)c(C)s2)[C@H]2CCN3C2)ccn1 [Example 481]
B (EC1.5 1-25 μM) | ≥ 150% |  |  |  | Cc1ccc(-c2ccc3c(n2)N(C(=O)Nc2ccccn2)[C@H]2CCCN3C2)cn1 [Example 465]
C (EC1.5>25 μM) | < 150% |  |  |  | CC(C)N1CCCN(c2ccc3c(n2)N(C(=O)Nc2ccncn2)[C@H]2CCCN3C2)CC1 [Example 447]
A (EC1.5<1 μM) | ≥ 150% |  |  |  | N#Cc1cccc(-c2ccc3c(n2)N(C(=O)Nc2ccncn2)[C@H]2CCCN3C2)c1 [Example 352]
A (EC1.5<1 μM) | ≥ 150% |  |  |  | O=C(Nc1ccc(F)cn1)N1c2nc(-c3ccnc(N4CCC(C(F)(F)F)C4)c3)ccc2N2CC[C@H]1C2 (stereo partly drawn) [Example 391]
B (EC1.5 1-25 μM) | ≥ 150% |  |  |  | Cc1ccc(-c2ccc3c(n2)N(C(=O)Nc2cncc(F)c2)[C@H]2CCCN3C2)cn1 [Example 477]
A (EC1.5<1 μM) | ≥ 150% |  |  |  | O=C(Nc1cccc(-c2cnco2)n1)N1c2nc(-c3cccc(C(F)(F)F)c3)ccc2N2CCC1CC2 [Example 596]
 |  |  | ≥ 150% | A (EC1.5<1 μM) | N=C(N)NCc1ccc(NC(=O)N2c3nc(-c4cccc(C(F)(F)F)c4)ccc3N3CCC[C@H]2C3)cc1 [Example 777]
A (EC1.5<1 μM) | ≥ 150% |  |  |  | Cn1nccc1-c1cccc(NC(=O)N2c3nc(-c4cccc(C(F)(F)F)c4)ccc3N3CC[C@H]2C3)n1 [Example 623]
 |  | B (EC1.5 1-25 μM) | ≥ 150% |  | COc1cnc(NC(=O)N2c3nc(-c4cccc(Cl)c4)ccc3N3CC[C@H]2C3)cn1 [Example 124]
B (EC1.5 1-25 μM) | ≥ 150% |  |  |  | O=C(Nc1ccccn1)N1c2nc(-c3ccnc(N4CC[C@@H](F)C4)c3)ccc2N2CC[C@H]1C2 [Example 448]
 |  |  | ≥ 150% | A (EC1.5<1 μM) | O=C(Nc1nnc(-c2ccccc2)s1)N1c2nc(-c3cccc(C(F)(F)F)c3)ccc2N2CC[C@H]1C2 [Example 648]
 |  |  | < 150% |  | CC(C)(C)c1ccccc1NC(=O)N1c2nc(-c3cccc(C(F)(F)F)c3)ccc2N2CC[C@H]1C2 [Example 70]
 |  | A (EC1.5<1 μM) | ≥ 150% |  | Cc1nc(NC(=O)N2c3nc(-c4cccc(C(F)(F)F)c4)ccc3N3CCC2CC3)sc1C [Example 173]
 |  | B (EC1.5 1-25 μM) | ≥ 150% |  | COc1nccc(NC(=O)N2c3nc(-c4cccc(N5CCCC5)c4)ccc3N3CC[C@H]2C3)n1 [Example 188]
 |  |  | ≥ 150% | A (EC1.5<1 μM) | CN(C)c1ccnc(NC(=O)N2c3nc(-c4cccc(C(F)(F)F)c4)ccc3N3CC[C@H]2C3)n1 [Example 747]
 |  |  | ≥ 150% | A (EC1.5<1 μM) | O=C(Nc1cccc(-c2cnco2)n1)N1c2nc(-c3cncc(F)c3)ccc2N2CC[C@H]1C2 [Example 739]
 |  | C (EC1.5>25 μM) | < 150% |  | CCN(CC)C(=O)N1c2nc(-c3cccc(C(F)(F)F)c3)ccc2N2CC[C@H]1C2 [Example 52]
 |  |  | ≥ 150% | A (EC1.5<1 μM) | CC(C)(C)OC(=O)NCC#Cc1ccc(NC(=O)N2c3nc(-c4cccc(C(F)(F)F)c4)ccc3N3CC[C@H]2C3)cc1-c1cnco1 [Example 751]
B (EC1.5 1-25 μM) | ≥ 150% |  |  |  | CN(C)c1cccc(-c2ccc3c(n2)N(C(=O)Nc2ccccn2)[C@H]2CCCN3C2)c1 [Example 386]
B (EC1.5 1-25 μM) | ≥ 150% |  |  |  | O=C(Nc1cnccn1)N1c2nc(-c3cccc(Cl)c3)ccc2N2CCC1CC2 [Example 543]
B (EC1.5 1-25 μM) | ≥ 150% |  |  |  | O=C(NCCc1cccnc1)N1c2nc(-c3cccc(C(F)(F)F)c3)ccc2N2CC[C@H]1C2 [Example 615]
 |  | A (EC1.5<1 μM) | ≥ 150% |  | N#Cc1cccc(-c2ccc3c(n2)N(C(=O)Nc2ccc(F)cn2)[C@H]2CCN3C2)c1 [Example 130]
